Assay results taken from PubChem BioAssay (NCI).
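Interpolation was linear, between the two tested concentrations surrounding the appropriate level; five concentrations were tested over 48 hours in 96-well plates. The concentration for full growth arrest is given as TGI.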

What was measured:
Assay in all cases: NCI-60 cell line screen, 48 h
A498 renal = system: A498 renal
ACHN renal = system: ACHN renal
CCRF-CEM leukemia = system: CCRF-CEM leukemia
DLD-1 colon = system: DLD-1 colon
DMS 114 small cell lung = system: DMS 114 small cell lung
EKVX NSCLC = system: EKVX NSCLC
HCC-2998 colon = system: HCC-2998 colon
HCT-116 colon = system: HCT-116 colon
HCT-15 colon = system: HCT-15 colon
HL-60(TB) leukemia = system: HL-60(TB) leukemia
HOP-62 NSCLC = system: HOP-62 NSCLC
HT29 colon = system: HT29 colon
K-562 leukemia = system: K-562 leukemia
KM12 colon = system: KM12 colon
LOX IMVI melanoma = system: LOX IMVI melanoma
LXFL 529 NSCLC = system: LXFL 529 NSCLC
M14 melanoma = system: M14 melanoma
M19-MEL melanoma = system: M19-MEL melanoma
MALME-3M melanoma = system: MALME-3M melanoma
MOLT-4 leukemia = system: MOLT-4 leukemia
NCI-H23 lung = system: NCI-H23 lung
NCI-H460 lung = system: NCI-H460 lung
NCI-H522 lung = system: NCI-H522 lung
OVCAR-3 ovarian = system: OVCAR-3 ovarian
OVCAR-4 ovarian = system: OVCAR-4 ovarian
OVCAR-5 ovarian = system: OVCAR-5 ovarian
RPMI-8226 leukemia = system: RPMI-8226 leukemia
RXF 393 renal = system: RXF 393 renal
RXF-631 renal = system: RXF-631 renal
SF-268 CNS = system: SF-268 CNS
SF-539 CNS = system: SF-539 CNS
SK-MEL-2 melanoma = system: SK-MEL-2 melanoma
SK-MEL-28 melanoma = system: SK-MEL-28 melanoma
SK-OV-3 ovarian = system: SK-OV-3 ovarian
SN12C renal = system: SN12C renal
SNB-19 CNS = system: SNB-19 CNS
SNB-75 CNS = system: SNB-75 CNS
SNB-78 CNS = system: SNB-78 CNS
SR leukemia = system: SR leukemia
TK-10 renal = system: TK-10 renal
U251 CNS = system: U251 CNS
UACC-257 melanoma = system: UACC-257 melanoma
UACC-62 melanoma = system: UACC-62 melanoma
UO-31 renal = system: UO-31 renal
XF 498 CNS = system: XF 498 CNS
786-0 renal = system: 786-0 renal
A549 NSCLC = system: A549 NSCLC
CAKI-1 renal = system: CAKI-1 renal
COLO 205 colon = system: COLO 205 colon
DMS 273 small cell lung = system: DMS 273 small cell lung
HOP-18 NSCLC = system: HOP-18 NSCLC
HOP-92 NSCLC = system: HOP-92 NSCLC
IGROV1 ovarian = system: IGROV1 ovarian
KM20L2 colon = system: KM20L2 colon
NCI-H226 lung = system: NCI-H226 lung
OVCAR-8 ovarian = system: OVCAR-8 ovarian
SF-295 CNS = system: SF-295 CNS
SK-MEL-5 melanoma = system: SK-MEL-5 melanoma
SW-620 colon = system: SW-620 colon

Structure (SMILES): Cc1cc(NS(=O)(=O)c2ccc(NC(=O)c3cccc4c(Nc5ccc(S(N)(=O)=O)cc5)c5ccccc5nc34)cc2)no1
- TGI (A498 renal): > 100 µM
- TGI (ACHN renal): > 100 µM
- TGI (CCRF-CEM leukemia): > 100 µM
- TGI (DLD-1 colon): > 100 µM
- TGI (DMS 114 small cell lung): > 100 µM
- TGI (EKVX NSCLC): > 100 µM
- TGI (HCC-2998 colon): > 100 µM
- TGI (HCT-116 colon): > 100 µM
- TGI (HCT-15 colon): > 100 µM
- TGI (HL-60(TB) leukemia): > 100 µM
- TGI (HOP-62 NSCLC): > 100 µM
- TGI (HT29 colon): > 100 µM
- TGI (K-562 leukemia): > 100 µM
- TGI (KM12 colon): > 100 µM
- TGI (LOX IMVI melanoma): > 100 µM
- TGI (LXFL 529 NSCLC): > 100 µM
- TGI (M14 melanoma): > 100 µM
- TGI (M19-MEL melanoma): > 100 µM
- TGI (MALME-3M melanoma): > 100 µM
- TGI (MOLT-4 leukemia): > 100 µM
- TGI (NCI-H23 lung): > 100 µM
- TGI (NCI-H460 lung): > 100 µM
- TGI (NCI-H522 lung): > 100 µM
- TGI (OVCAR-3 ovarian): > 100 µM
- TGI (OVCAR-4 ovarian): > 100 µM
- TGI (OVCAR-5 ovarian): > 100 µM
- TGI (RPMI-8226 leukemia): > 100 µM
- TGI (RXF 393 renal): > 100 µM
- TGI (RXF-631 renal): > 100 µM
- TGI (SF-268 CNS): > 100 µM
- TGI (SF-539 CNS): > 100 µM
- TGI (SK-MEL-2 melanoma): > 100 µM
- TGI (SK-MEL-28 melanoma): > 100 µM
- TGI (SK-OV-3 ovarian): > 100 µM
- TGI (SN12C renal): > 100 µM
- TGI (SNB-19 CNS): > 100 µM
- TGI (SNB-75 CNS): > 100 µM
- TGI (SNB-78 CNS): > 100 µM
- TGI (SR leukemia): > 100 µM
- TGI (TK-10 renal): > 100 µM
- TGI (U251 CNS): > 100 µM
- TGI (UACC-257 melanoma): > 100 µM
- TGI (UACC-62 melanoma): > 100 µM
- TGI (UO-31 renal): > 100 µM
- TGI (XF 498 CNS): > 100 µM

Structure (SMILES): c1cc(-c2cn3c(n2)SCC3)ccn1
- TGI (786-0 renal): 44.5 µM
- TGI (A498 renal): > 100 µM
- TGI (A549 NSCLC): > 100 µM
- TGI (ACHN renal): > 100 µM
- TGI (CAKI-1 renal): > 100 µM
- TGI (CCRF-CEM leukemia): > 100 µM
- TGI (COLO 205 colon): > 100 µM
- TGI (DLD-1 colon): > 100 µM
- TGI (DMS 114 small cell lung): > 89.6 µM
- TGI (DMS 273 small cell lung): 93.1 µM
- TGI (EKVX NSCLC): > 100 µM
- TGI (HCC-2998 colon): > 100 µM
- TGI (HCT-116 colon): > 60.4 µM
- TGI (HCT-15 colon): > 59 µM
- TGI (HL-60(TB) leukemia): > 67.5 µM
- TGI (HOP-18 NSCLC): > 100 µM
- TGI (HOP-62 NSCLC): > 100 µM
- TGI (HOP-92 NSCLC): > 100 µM
- TGI (HT29 colon): > 100 µM
- TGI (IGROV1 ovarian): > 100 µM
- TGI (K-562 leukemia): > 31.6 µM
- TGI (KM12 colon): > 100 µM
- TGI (KM20L2 colon): > 100 µM
- TGI (LOX IMVI melanoma): > 100 µM
- TGI (LXFL 529 NSCLC): > 100 µM
- TGI (M14 melanoma): > 100 µM
- TGI (M19-MEL melanoma): > 100 µM
- TGI (MALME-3M melanoma): > 100 µM
- TGI (MOLT-4 leukemia): > 100 µM
- TGI (NCI-H226 lung): > 100 µM
- TGI (NCI-H23 lung): > 100 µM
- TGI (NCI-H460 lung): > 95.2 µM
- TGI (NCI-H522 lung): > 100 µM
- TGI (OVCAR-3 ovarian): > 100 µM
- TGI (OVCAR-4 ovarian): > 100 µM
- TGI (OVCAR-5 ovarian): > 100 µM
- TGI (OVCAR-8 ovarian): > 100 µM
- TGI (RPMI-8226 leukemia): > 100 µM
- TGI (SF-268 CNS): > 100 µM
- TGI (SF-295 CNS): > 100 µM
- TGI (SF-539 CNS): > 65.2 µM
- TGI (SK-MEL-2 melanoma): > 100 µM
- TGI (SK-MEL-28 melanoma): > 100 µM
- TGI (SK-MEL-5 melanoma): > 100 µM
- TGI (SK-OV-3 ovarian): > 100 µM
- TGI (SN12C renal): > 100 µM
- TGI (SNB-19 CNS): > 100 µM
- TGI (SNB-75 CNS): > 100 µM
- TGI (SNB-78 CNS): > 100 µM
- TGI (SR leukemia): > 100 µM
- TGI (SW-620 colon): > 57.7 µM
- TGI (TK-10 renal): > 100 µM
- TGI (U251 CNS): > 100 µM
- TGI (UACC-257 melanoma): > 100 µM
- TGI (UACC-62 melanoma): > 100 µM
- TGI (UO-31 renal): > 100 µM
- TGI (XF 498 CNS): > 100 µM
